Patent publication US7754738B2, “Pyrazole and pyrrole carboxamide insecticides” (E.I. du Pont de Nemours and Company, priority 2002, dated 2010)

Tested on: beet armyworm (Spodoptera exigua)
Assay: Test D: control of beet armyworm on corn plant, foliar spray
Format: in vivo
Settings: sprayed at 50 ppm, 1-day-old larvae, 6 days, visual rating
Description: Test compounds were formulated using a solution containing 10% acetone, 90% water and 300 ppm X-77® Spreader Lo-Foam Formula non-ionic surfactant containing alkylarylpolyoxyethylene, free fatty acids, glycols and isopropanol (Loveland Industries, Inc., Greely, Colo. USA), unless otherwise indicated. The formulated compounds were applied in 1 mL of liquid through a SUJ2 atomizer nozzle with ⅛ JJ custom body (Spraying Systems Co. Wheaton, Ill., USA) positioned 1.27 cm (0.5 inches) above the top of each test unit. All experimental compounds in these tests were sprayed at 250 ppm (or lower) and replicated three times. After spraying of the formulated test compound, each test unit was allowed to dry for 1 hour and then a black, screened cap was placed on top. The test units were held for 6 days in a growth chamber at 25° C. and 70% relative humidity. Plant feeding damage was then visually assessed based on foliage consumed.
For evaluating control of beet armyworm (Spodoptera exigua) the test unit consisted of a small open container with a 4-5-day-old corn plant inside. This was pre-infested (using a core sampler) with 10-15 1-day-old larvae on a piece of insect diet.
Test compounds were formulated and sprayed at 250 ppm (or lower) as described for Test A. The applications were replicated three times. […]

With O=C(Nc1c(F)cc(F)cc1Br)c1cc(Br)nn1-c1ncccc1Cl [Compound 7, N-(2-bromo-4,6-difluorophenyl)-1-(3-chloro-2-pyridinyl)-3-bromo-1H-pyrazole-5-carboxamide] the “feeding damage (plant protection)” value was at most 20%.
